Assay results: patent publication US11312722B2, “Hsp90 inhibitors and uses thereof” (TRUSTEES OF BOSTON UNIVERSITY, priority 2019, dated 2022)
Where two headings read alike, the source gives them in different places.

Assays:
[1] = target: Hsp90 (C. albicans whole cell lysate) (Candida albicans (strain SC5314 / ATCC MYA-2876) (Yeast), UniProt P46598); test: biochemical; assay type: binding; details: for C. alb Active (biochemical): Yes/No call
Protocol: All analogs were assessed for Hsp90 binding affinity using a fluorescence polarization (FP)-based equilibrium competition assay in fungal and human whole cell lysates. […] Using lysates, the relative potency and selectivity for fungal Hsp90 was measured versus the entire ensemble of human Hsp90 isoforms in microplate format using small amounts of test materials. […] Thermal shift assays were performed under saturating ligand conditions, i.e. equimolar concentrations (10 μM) of protein and ligand. As a result, they provided qualitative evidence of target binding, but not a quantitative measurement of ligand affinity. For quantitation, a ligand dissociation constant (Ki) for key compounds was also determined using purified NBDs in FP assays and KD measurements were made by surface plasmon resonance (SPR) using a Biacore instrument. Finally, all analogs were assessed for whole cell antifungal activity against the pathogens C. albicans and C. neoformans.
FP assays. Whole cell lysates were prepared for FP assays as described previously. Total protein concentration of human and yeast lysates was determined by Bradford assay. […] Serial dilutions of test Hsp90 inhibitors were then assayed under these same conditions to monitor loss of fluorescence polarization as an indicator of probe displacement from Hsp90. […] Titrations of test compound in 25 μL of binding buffer (supplemented with 0.1 mg/mL bovine gamma globulin), were mixed with an equal volume of freshly prepared whole-cell lysate spiked with Cy3-GdA (0.1 nM). Plates were incubated at room temperature for 4.5 h to achieve equilibrium binding for the geldanamycin-based probe. […] Non-linear 4-parameter curve fitting of raw displacement data was performed in GraphPad Prism 5.0 to determine EC50 values as a measure of relative Hsp90-binding affinity. Results were normalized to the value determined for GdA in lysate of each cell type.
Statistical methods. […] In calculating the error of selectivity determinations, the fractional error of measurements in each species was summed to yield a composite error for the derived ratio.

[2] = tested on: C. neoformans (Strain H99); test: Antifungal sensitivity testing (MIC), C. neoformans H99; assay type: cell-based; details: for MIC80 / MIC90: Cryptococcus neoformans; for MIC80: read-out: C. neo MIC80; for MIC90: read-out: C. neo MIC90
Protocol: Color scale bar: no growth inhibition (green) to complete inhibition (black). Each shaded box represents the mean of technical duplicates. The experiment was repeated as an independent biological replicate to confirm results.
Minimum inhibitory concentration (MIC) value for compounds against C. neoformans (Strain H99) was determined in dose-response format, in technical duplicate. Experiments were conducted in RPMI medium at 37° C. for 48 h. Relative viable cell number was measured by standard dye reduction (resazurin) assay.
Yeast strains and culture conditions. Strains used in this study were C. albicans CaCi2 (clinical isolate 2), [58] SC5314, [59] and C. neoformans H99. […] Active cultures were maintained on solid (2% agar) yeast extract peptone (YPD, 1% yeast extract, 2% bactopeptone, 2% glucose) at 4° C. for no more than one month.
Antifungal sensitivity testing. […] Each compound was tested in duplicate in at least two independent experiments. […] Plates were photographed after 24 h of incubation at 30° C.

[3] = FP competition, whole cell lysate, duplicate, screening experiment, read-out: C. albicans EC50

Row | SMILES | C. alb Active (biochemical) [1] | EC50 ([1]; read-out: C. alb EC50) [µM] | MIC80 [2] [µM] | MIC90 [2] [µM] | further results
1 | COc1cccc(-c2cc(Nc3cc(O)cc(O)c3C(=O)N3Cc4cccc(F)c4C3)n(C)n2)c1 [ACSM01130] | Yes | 5.82 | – | – | C. neo MIC80 [2]: >50 µM; C. neo MIC90 [2]: >50 µM
2 | Cc1ccccc1-c1cc(Nc2cc(O)cc(O)c2C(=O)N2Cc3ccc(F)cc3C2)n(C)n1 [ACSM01135] | Yes | 0.904 | – | – | –
3 | Cc1ccc(F)c(-c2cc(Nc3cc(O)cc(O)c3C(=O)N3Cc4ccccc4C3)n(C)n2)c1 [ACSM01268] | Yes | 1.68 | – | – | –
4 | Cn1nc(-c2cccc(F)c2F)cc1Nc1cc(O)cc(O)c1C(=O)N1Cc2ccccc2C1 [ACSM01269] | Yes | 2.21 | – | – | –
5 | Cn1nc(-c2cc(F)ccc2F)cc1Nc1cc(O)cc(O)c1C(=O)N1Cc2ccccc2C1 [ACSM01270] | Yes | 1.12 | – | – | –
6 | COc1ccccc1-c1cc(Nc2cc(O)cc(O)c2C(=O)N2CC[C@H](N)C2)n(C)n1 [ACSM01271] | Yes | 5.34 | – | – | C. neo MIC80 [2]: >25 µM; C. neo MIC90 [2]: >25 µM
7 | Cc1cccc(-c2cc(Nc3cc(O)cc(O)c3C(=O)N3Cc4ccccc4C3)n(C)n2)c1C [ACSM01272] | Yes | 6.2 | – | – | –
8 | Cc1cccc(-c2cc(Nc3cc(O)cc(O)c3C(=O)N3Cc4ccccc4C3)n(C)n2)c1F [ACSM01273] | Yes | – | – | – | –
9 | Cn1nc(-c2cccc(F)c2)cc1Nc1cc(O)cc(O)c1C(=O)N1Cc2ccccc2C1 [ACSM01345] | Yes | 1.25 | – | – | –
10 | Cn1nc(-c2cccc(Cl)c2)cc1Nc1cc(O)cc(O)c1C(=O)N1Cc2ccccc2C1 [ACSM01362] | Yes | 4.17 | – | – | –
11 | COc1ccc(Cn2nc(C)cc2Nc2cc(O)cc(O)c2C(=O)N(C)CC2CC2)cc1 [Compound 30, N-(Cyclopropylmethyl)-2,4-dihydroxy-6-((1-((4-methoxyphenyl)methyl)-3-methyl-1H-pyrazol-5-yl)amino)-N-methylbenzamide] | No | > 9 | > 25 | > 25 | EC50 [1, 3]: > 9 µM
12 | COc1ccc(Cn2nc(C)cc2Nc2cc(O)cc(O)c2C(=O)N(C)Cc2ccccc2)cc1 [Compound 37, N-Benzyl-2,4-dihydroxy-6-((1-((4-methoxyphenyl)methyl)-3-methyl-1H-pyrazol-5-yl)amino)-N-methylbenzamide] | – | – | – | – | EC50 [1, 3]: > 6 µM
13 | Cn1nccc1Nc1cc(O)cc(O)c1C(=O)N1Cc2cn[nH]c2C1 [Compound 58, 5-((1-Methyl-1H-pyrazol-5-yl)amino)-4-(1H,4H,5H,6H-pyrrolo[3,4-c]pyrazole-5-carbonyl)benzene-1,3-diol] | Yes | – | > 25 | > 25 | –
14 | Cn1nc(-c2ccccc2)cc1Nc1cc(O)cc(O)c1C(=O)N1Cc2cccnc2C1 [Compound 92, 5-((1-Methyl-3-phenyl-1H-pyrazol-5-yl)amino)-4-(5H,6H,7H-pyrrolo[3,4-b]pyridine-6-carbonyl)benzene-1,3-diol] | Yes | – | > 25 | > 25 | –
15 | Cn1nc(-c2ccccc2)cc1Nc1cc(O)cc(O)c1C(=O)N1Cc2cn[nH]c2C1 [Compound 93, 5-((1-Methyl-3-phenyl-1H-pyrazol-5-yl)amino)-4-(1H,4H,5H,6H-pyrrolo[3,4-c]pyrazole-5-carbonyl)benzene-1,3-diol] | Yes | – | > 25 | > 25 | –
16 | CC(C)(C)n1nc(-c2ccccc2)cc1Nc1cc(O)cc(O)c1C(=O)N1Cc2cccnc2C1 [Compound 94, 5-((1-tert-Butyl-3-phenyl-1H-pyrazol-5-yl)amino)-4-(5H,6H,7H-pyrrolo[3,4-b]pyridine-6-carbonyl)benzene-1,3-diol] | Yes | – | > 25 | > 25 | –
17 | CC(C)(C)n1nc(-c2ccccc2)cc1Nc1cc(O)cc(O)c1C(=O)N1Cc2cn[nH]c2C1 [Compound 95, 5-((1-tert-Butyl-3-phenyl-1H-pyrazol-5-yl)amino)-4-(1H,4H,5H,6H-pyrrolo[3,4-c]pyrazole-5-carbonyl)benzene-1,3-diol] | Yes | – | > 25 | > 25 | –
18 | Cn1nc(C2CCCCC2)cc1Nc1cc(O)cc(O)c1C(=O)N1Cc2cccnc2C1 [Compound 104, 5-((3-Cyclohexyl-1-methyl-1H-pyrazol-5-yl)amino)-4-(5H,6H,7H-pyrrolo[3,4-b]pyridine-6-carbonyl)benzene-1,3-diol] | Yes | – | > 25 | > 25 | –
19 | Cc1ccccc1-c1cc(Nc2cc(O)cc(O)c2C(=O)N2Cc3cccnc3C2)n(C)n1 [Compound 107, 5-((1-Methyl-3-(2-methylphenyl)-1H-pyrazol-5-yl)amino)-4-(5H,6H,7H-pyrrolo[3,4-b]pyridine-6-carbonyl)benzene-1,3-diol] | Yes | – | > 25 | > 25 | –
20 | Cc1ccccc1-c1cc(Nc2cc(O)cc(O)c2C(=O)N2Cc3cn[nH]c3C2)n(C)n1 [Compound 108, 5-((1-Methyl-3-(2-methylphenyl)-1H-pyrazol-5-yl)amino)-4-(1H,4H,5H,6H-pyrrolo[3,4-c]pyrazole-5-carbonyl)benzene-1,3-diol] | Yes | – | > 25 | > 25 | –
21 | Cc1cccc(-c2cc(Nc3cc(O)cc(O)c3C(=O)N3Cc4ccccc4C3)n(C)n2)c1 [Compound 109, 4-(2,3-Dihydro-1H-isoindole-2-carbonyl)-5-((1-methyl-3-(3-methylphenyl)-1H-pyrazol-5-yl)amino)benzene-1,3-diol] | Yes | – | > 25 | > 25 | –
22 | Cc1cccc(-c2cc(Nc3cc(O)cc(O)c3C(=O)N3Cc4cccnc4C3)n(C)n2)c1 [Compound 110, 5-((1-Methyl-3-(3-methylphenyl)-1H-pyrazol-5-yl)amino)-4-(5H,6H,7H-pyrrolo[3,4-b]pyridine-6-carbonyl)benzene-1,3-diol] | Yes | – | > 25 | > 25 | –
23 | Cn1nc(-c2cccc(C(F)(F)F)c2)cc1Nc1cc(O)cc(O)c1C(=O)N1Cc2ccccc2C1 [Compound 115, 4-(2,3-Dihydro-1H-isoindole-2-carbonyl)-5-((1-methyl-3-(3-(trifluoromethyl)phenyl)-1H-pyrazol-5-yl)amino)benzene-1,3-diol] | Yes | – | > 25 | > 25 | –
24 | Cn1nc(-c2cccc(C(F)(F)F)c2)cc1Nc1cc(O)cc(O)c1C(=O)N1Cc2cccnc2C1 [Compound 116, 5-((1-Methyl-3-(3-(trifluoromethyl)phenyl)-1H-pyrazol-5-yl)amino)-4-(5H,6H,7H-pyrrolo[3,4-b]pyridine-6-carbonyl)benzene-1,3-diol] | Yes | – | > 25 | > 25 | –
25 | Cn1nc(-c2cccc(C(F)(F)F)c2)cc1Nc1cc(O)cc(O)c1C(=O)N1Cc2cn[nH]c2C1 [Compound 117, 5-((1-Methyl-3-(3-(trifluoromethyl)phenyl)-1H-pyrazol-5-yl)amino)-4-(1H,4H,5H,6H-pyrrolo[3,4-c]pyrazole-5-carbonyl)benzene-1,3-diol] | Yes | – | > 25 | > 25 | –
26 | Cc1ccc(-c2cc(Nc3cc(O)cc(O)c3C(=O)N3Cc4ccccc4C3)n(C)n2)cc1 [Compound 118, 4-(2,3-Dihydro-1H-isoindole-2-carbonyl)-5-((1-methyl-3-(4-methylphenyl)-1H-pyrazol-5-yl)amino)benzene-1,3-diol] | Yes | – | > 25 | > 25 | –
27 | COc1ccc(-c2cc(Nc3cc(O)cc(O)c3C(=O)N3Cc4ccccc4C3)n(C)n2)cc1 [Compound 121, 4-(2,3-Dihydro-1H-isoindole-2-carbonyl)-5-((3-(4-methoxyphenyl)-1-methyl-1H-pyrazol-5-yl)amino)benzene-1,3-diol] | – | – | > 25 | > 25 | C. neo Active (cells) ([2]; Yes/No call): No
